# Patent publication US9462793B2, “Mouse carrying a knock-out mutation of the Qpct-gene” (PROBIODRUG AG, priority 2008, dated 2016)
# Tests used:
# mammalian Qpct = conditions: cited from earlier work
# Qpct [1] = target: T1, Qpct (Homo sapiens, UniProt Q16769); experiment: Inhibition of Qpct by chelators (metal dependence); assay type: biochemical; conditions: human Qpct and other animal Qpcts
# [2] = pKa of α-amino group determined by titration; assay type: physicochemical
# Excerpt: (§1) However, in the pH-range of about 5.2-6.5, between their respective pKa-values, the two functional groups are present both in non-ionized forms, in concentrations of about 1-10% (—NH2) or 10-1% (—COOH) of total N-terminal Glu-containing peptide. As a result, over a mildly acidic pH-range species of N-terminal Glu-peptides are present which carry both groups uncharged, and, therefore, it is possible that Qpct could stabilize the intermediate of intramolecular cyclization into the pGlu-peptide, i.e. if the γ-carboxylic group is protonated, the carbonyl carbon is electrophilic enough to allow nucleophilic attack by the unprotonated α-amino group. At this pH the hydroxyl ion functions as a leaving group. These assumptions are corroborated by the pH-dependence data obtained for the Qpct catalyzed conversion of Glu-βNA. In contrast to glutamine conversion of Gln-βNA by Qpct, the pH-optimum of catalysis shifts to the acidic range around pH 6.0, i.e. the pH-range, in which substrate molecule species are simultaneously abundant carrying a protonated 7-carboxyl and unprotonated α-amino group.
# Qpct [3] = target: T1, Qpct; experiment: pH-dependence of Qpct catalyzed conversion of Glu-βNA; assay type: biochemical
# Excerpt: as §1
# [4] = cited from earlier work
# T1 sequence (Q16769 29-361): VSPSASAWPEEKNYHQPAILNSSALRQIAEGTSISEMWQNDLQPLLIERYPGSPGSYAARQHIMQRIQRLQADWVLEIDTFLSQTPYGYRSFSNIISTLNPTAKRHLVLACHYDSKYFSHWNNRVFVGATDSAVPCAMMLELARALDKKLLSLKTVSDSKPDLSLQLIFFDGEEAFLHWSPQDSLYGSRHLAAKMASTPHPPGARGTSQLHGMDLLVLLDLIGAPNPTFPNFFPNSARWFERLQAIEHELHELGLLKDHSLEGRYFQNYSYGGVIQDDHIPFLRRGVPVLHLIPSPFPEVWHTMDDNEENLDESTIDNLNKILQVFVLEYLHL
Molecule,Inhibition of a mammalian Qpct (mammalian Qpct),inhibition characteristics of Qpct (Qpct [1]),further results
"c1cnc2c(c1)ccc1cccnc12 [1,10-phenanthroline]",Inhibition of a mammalian Qpct was only detected,inhibition,–
Oc1cccc2cccnc12 [8-hydroxy-quinoline],–,inhibition,–
O=C(O)CN(CCN(CC(=O)O)CC(=O)O)CC(=O)O [EDTA],did not inhibit,–,–
N[C@@H](CCC(=O)O)C(=O)Nc1ccc2ccccc2c1 [Glu-βNA],–,–,"pKa of the α-amino group, determined by titration [2]: 7.57±0.05; kinetically determined pKa-value (Qpct [3]): 7.55+/−0.02"
N[C@@H](CCC(=O)O)C(=O)O [Glutamate],–,–,pKa-value for the α-amino moiety [4]: ~7.5; pKa-value for the γ-carboxylic moiety [4]: about 4.2
O=C(O)c1cccc(C(=O)O)n1 [dipicolinic acid],–,inhibition,–
reduced 6-methylpterin,Inhibition of a mammalian Qpct was only detected,–,–
